Measured values reported in ChEMBL document CHEMBL1201862, “PubChem BioAssay data set” (2004).
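The compound was tested at five concentrations on cells cultured in 96-well plates, with a 48-hour exposure period. At the GI50, growth is halved.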 Activity calls are given as the source filed them. No stated cut-off is given here; in the data, active = GI50 up to about 1.1 µM and inactive = higher.

Experiments:
Assay in all cases: inhibition of tumour cell growth, NCI panel, 48 h
CCRF-CEM = tested on: CCRF-CEM
SK-MEL-5 = tested on: SK-MEL-5
HCT-116 = tested on: HCT-116
LXFL 529 = tested on: LXFL 529
OVCAR-3 = tested on: OVCAR-3
UACC-257 = tested on: UACC-257
SNB-75 = tested on: SNB-75
RXF 393 = tested on: RXF 393
OVCAR-5 = tested on: OVCAR-5
HT-29 = tested on: HT-29
M19-MEL = tested on: M19-MEL
TK-10 = tested on: TK-10
HOP-62 = tested on: HOP-62
RPMI-8226 = tested on: RPMI-8226
ACHN = tested on: ACHN
HCC 2998 = tested on: HCC 2998
SK-MEL-2 = tested on: SK-MEL-2
SW-620 = tested on: SW-620
A549 = tested on: A549
NCI-H226 = tested on: NCI-H226
U-251 = tested on: U-251
OVCAR-4 = tested on: OVCAR-4
SNB-19 = tested on: SNB-19
786-0 = tested on: 786-0
DMS-114 = tested on: DMS-114
HOP-18 = tested on: HOP-18
CAKI-1 = tested on: CAKI-1
DMS-273 = tested on: DMS-273
UACC-62 = tested on: UACC-62
KM-20L2 = tested on: KM-20L2
SF-295 = tested on: SF-295
SNB-78 = tested on: SNB-78
EKVX = tested on: EKVX
K562 = tested on: K562
SF-268 = tested on: SF-268
HL-60 = tested on: HL-60
NCI-H460 = tested on: NCI-H460
NCI-H23 = tested on: NCI-H23
KM12 = tested on: KM12
HOP-92 = tested on: HOP-92
COLO 205 = tested on: COLO 205
SK-MEL-28 = tested on: SK-MEL-28
IGROV-1 = tested on: IGROV-1
SN12C = tested on: SN12C
SF-539 = tested on: SF-539
Malme-3M = tested on: Malme-3M
XF498 = tested on: XF498
OVCAR-8 = tested on: OVCAR-8
HCT-15 = tested on: HCT-15
MOLT-4 = tested on: MOLT-4
SK-OV-3 = tested on: SK-OV-3
A498 = tested on: A498
DLD-1 = tested on: DLD-1
M14 = tested on: M14
RXF 631 = tested on: RXF 631
NCI-H522 = tested on: NCI-H522
UO-31 = tested on: UO-31
LOX IMVI = tested on: LOX IMVI

CC1=NOC(=O)C1/N=N/c1ccc(Br)c(C)c1 (configuration not stated)
GI50 (CCRF-CEM): 11.8 µM (inactive) | GI50 (SK-MEL-5): 12.7 µM (inactive) | GI50 (HCT-116): 17.7 µM (inactive) | GI50 (LXFL 529): 15.5 µM (inactive) | GI50 (OVCAR-3): 17.2 µM (inactive) | GI50 (UACC-257): 17.5 µM (inactive) | GI50 (SNB-75): 30.5 µM (inactive) | GI50 (RXF 393): 19.7 µM (inactive) | GI50 (OVCAR-5): 24.9 µM (inactive) | GI50 (HT-29): 36.2 µM (inactive) | GI50 (M19-MEL): 18.6 µM (inactive) | GI50 (TK-10): 18.6 µM (inactive) | GI50 (HOP-62): 22.3 µM (inactive) | GI50 (RPMI-8226): 15.9 µM (inactive) | GI50 (ACHN): 17.8 µM (inactive) | GI50 (HCC 2998): 24.8 µM (inactive) | GI50 (SK-MEL-2): 16.3 µM (inactive) | GI50 (SW-620): 17.6 µM (inactive) | GI50 (A549): 20.3 µM (inactive) | GI50 (NCI-H226): 25.5 µM (inactive) | GI50 (U-251): 18.5 µM (inactive) | GI50 (OVCAR-4): 15.2 µM (inactive) | GI50 (SNB-19): 31.2 µM (inactive) | GI50 (786-0): 20 µM (inactive) | GI50 (DMS-114): 15.6 µM (inactive) | GI50 (HOP-18): 3.31 µM (inactive) | GI50 (CAKI-1): 16.1 µM (inactive) | GI50 (DMS-273): 20.2 µM (inactive) | GI50 (UACC-62): 19.3 µM (inactive) | GI50 (KM-20L2): 33.7 µM (inactive) | GI50 (SF-295): 23 µM (inactive) | GI50 (SNB-78): 26.4 µM (inactive) | GI50 (EKVX): 18 µM (inactive) | GI50 (K562): 13 µM (inactive) | GI50 (SF-268): 22.1 µM (inactive) | GI50 (HL-60): 8.39 µM (inactive) | GI50 (NCI-H460): 23.9 µM (inactive) | GI50 (NCI-H23): 21.6 µM (inactive) | GI50 (KM12): 26.1 µM (inactive) | GI50 (HOP-92): 17.3 µM (inactive) | GI50 (COLO 205): 25 µM (inactive) | GI50 (SK-MEL-28): 26.6 µM (inactive) | GI50 (IGROV-1): 19.2 µM (inactive) | GI50 (SN12C): 18.2 µM (inactive) | GI50 (SF-539): 20.2 µM (inactive) | GI50 (Malme-3M): 18.7 µM (inactive) | GI50 (XF498): 17.6 µM (inactive) | GI50 (OVCAR-8): 17.9 µM (inactive) | GI50 (HCT-15): 19.3 µM | GI50 (MOLT-4): 18.4 µM (inactive) | GI50 (SK-OV-3): 34.8 µM (inactive) | GI50 (A498): 21.4 µM (inactive) | GI50 (DLD-1): 24.4 µM (inactive) | GI50 (M14): 20.5 µM (inactive)

COc1ccc2c(c1)[n+]([O-])c(-c1c(Cl)cccc1Cl)c(N)[n+]2[O-]
GI50 (CCRF-CEM): 57.7 µM (inactive) | GI50 (SK-MEL-5): 22.9 µM (inactive) | GI50 (LXFL 529): 39.9 µM (inactive) | GI50 (OVCAR-3): 38.9 µM (inactive) | GI50 (UACC-257): 23.4 µM (inactive) | GI50 (SNB-75): > 100 µM (inactive) | GI50 (OVCAR-5): > 100 µM (inactive) | GI50 (HT-29): 55.5 µM (inactive) | GI50 (M19-MEL): 40.3 µM (inactive) | GI50 (TK-10): > 100 µM (inactive) | GI50 (RXF 631): 25.3 µM (inactive) | GI50 (NCI-H522): > 10 µM (inactive) | GI50 (RPMI-8226): 80.4 µM (inactive) | GI50 (ACHN): 62.4 µM (inactive) | GI50 (HCC 2998): 72.3 µM (inactive) | GI50 (SK-MEL-2): 26 µM (inactive) | GI50 (SW-620): 47.1 µM (inactive) | GI50 (A549): 45.2 µM (inactive) | GI50 (NCI-H226): 79.6 µM (inactive) | GI50 (U-251): 37.9 µM (inactive) | GI50 (OVCAR-4): 71.8 µM (inactive) | GI50 (SNB-19): 50 µM (inactive) | GI50 (786-0): 56.5 µM (inactive) | GI50 (DMS-114): 34.4 µM (inactive) | GI50 (CAKI-1): 50.5 µM (inactive) | GI50 (UO-31): 85.3 µM (inactive) | GI50 (DMS-273): 37.5 µM (inactive) | GI50 (UACC-62): 37.7 µM (inactive) | GI50 (KM-20L2): 42.2 µM (inactive) | GI50 (SF-295): 61 µM (inactive) | GI50 (SNB-78): 69.3 µM (inactive) | GI50 (EKVX): 61.5 µM (inactive) | GI50 (K562): 53.6 µM (inactive) | GI50 (SF-268): 40.6 µM (inactive) | GI50 (HL-60): 36.8 µM (inactive) | GI50 (NCI-H460): 44.4 µM (inactive) | GI50 (NCI-H23): 25.1 µM (inactive) | GI50 (LOX IMVI): 66.1 µM (inactive) | GI50 (KM12): 87.3 µM (inactive) | GI50 (HOP-92): 45.6 µM (inactive) | GI50 (COLO 205): 30.2 µM (inactive) | GI50 (SK-MEL-28): 29.9 µM (inactive) | GI50 (IGROV-1): 47.4 µM (inactive) | GI50 (SN12C): 46.1 µM (inactive) | GI50 (Malme-3M): 21.3 µM (inactive) | GI50 (XF498): 24.6 µM (inactive) | GI50 (OVCAR-8): 61.7 µM (inactive) | GI50 (HCT-15): 31.8 µM | GI50 (MOLT-4): 75.3 µM (inactive) | GI50 (SK-OV-3): > 100 µM (inactive) | GI50 (A498): > 100 µM (inactive) | GI50 (DLD-1): 39.4 µM (inactive) | GI50 (M14): 31.5 µM (inactive)
